In patent US11752125B2, “Anti-neuroinflammatory and protective compounds in Achillea fragrantissima” (THE STATE OF ISRAEL MINISTRY OF AGRICULTURE & RURAL …, priority 2013, dated 2023):

Tests used:
primary astrocytes = assay: Protection of astrocytes from H2O2-induced cell death (LDH); format: cell-based, rat; details: LDH 20 h later
Protocol: Primary cultures of astrocytes were prepared from cerebral cortices of 1-2 day-old neonatal Wistar rats as described (Elmann et al., 2011b). Fourteen days old astrocytes were used in the experiments. The research was conducted in accordance with the NIH guide for the care and use of laboratory animals, and was approved by the Institutional Animal Care and Use Committee of The Volcani Center, Agricultural Research Organization (IL-135/07, approval date Apr. 11, 2007). All efforts were made to minimize animal suffering and to reduce the number of animals used.
Astrocytes were re-plated at 24-well poly-D-lysine-coated plastic plates at a density of 1×10^5/well, in DMEM w/o Phenol Red containing 2% FBS, 2 mM glutamine, 100 U/mL penicillin, and 100 μg/mL streptomycin. H2O2 in the presence or absence of TTF were added, and cell viability was determined using a commercial colorimetric assay (Roche Applied Science, Germany) according to the manufacturer's instructions. This assay is based on the measurement of lactate dehydrogenase (LDH) activity released from the cytosol of damaged cells into the incubation medium. The absorbance was measured at 492 nm in a plate reader. The percentage of cytotoxicity was calculated according to the following equation, where the “ATriton-x treated cells” is the maximum releasable LDH in the cells:
In order to characterize the ability of TTF to protect against H2O2-induced astrocytic cell death, inventors assessed changes in cell viability using a model in which oxidative stress was induced by the addition of H2O2 to cultures of primary astrocytes. The concentration of H2O2 used in experiments (175-200 μM) resembles the concentration reported in rat striatum under ischemic conditions (Hyslop et al., 1995). […] Following preincubation, H2O2 was added, and cytotoxicity was determined 20 h later using the LDH assay. […] It should be noted that at all concentrations tested, the cytotoxicity of this flavonoid by itself to astrocytes was very low (<11%) as was determined by the LDH method (FIG. 2C). […] The protective activity of TTF was also compared to that of memantine, which is used as a drug for the treatment of Alzheimer's disease.
1. Produce a primary culture of rat brain glial cells according to the method described in “Protective effects of the essential oil of salvia fruticosa and its constituents on astrocytic susceptibility to hydrogen peroxide-induced cell death”. 2009. A. Elmann, S. Mordechay, M. Rindner, O. Larkov, M. Elkabetz, U. Ravid. Journal of agricultural and food chemistry. 57(15):6636-41; 2. Separate astrocytes from other cell types in the culture according to the method described in “Protective effects of the essential oil of salvia fruticosa and its constituents on astrocytic susceptibility to hydrogen peroxide-induced cell death”. 2009. A. Elmann, S. Mordechay, M. Rindner, O. Larkov, M. Elkabetz, U. Ravid. Journal of agricultural and food chemistry. 57(15):6636-41; 3. Incubate the cultured astrocytes (37° C., 5% CO2) for 2 hours with freshly diluted TTF or AcA of the invention; 4. Add 175-200 micromolars of freshly diluted H2O2; 5. Incubate the culture for 20-24 hr (37° C., 5% CO2); 6. Measure cell cytotoxicity and viability by the colorimetric lactate dehydrogenase (LDH) assay (Roche Applied science) according to the manufacturer's instructions, and the crystal violet cell staining as follows: 7. Gently draw out medium from plate; 8. Transfer plate to a chemical hood; 9. Dispense 150 μl 5% formaldehyde (in PBS) to each well and incubate 15 min at RT; 10. Pour out formaldehyde to chemical waste and gently rinse under running tap water; 11. Remove excess water by tapping plate on a tissue paper; 12. Dispense 150 μl crystal violet solution (10 gr/liter, in water) to each well; 13. Incubate 15 min at RT (in the chemical hood); 14. Pour out crystal violet to chemical waste and gently rinse under running tap water until all residual dye is removed; 15. Tap plate on a tissue paper to remove remaining water; 16. […]

[1] = DPPH free radical scavenging assay; details: cell free; 8 min
Protocol: (§1) Antioxidant activity was measured using the 2,2-diphenyl-1-pieryhydrazyl (DPPH) radical scavenging assay. Different dilutions of TTF (or control drugs) were added to 1 mL of DPPH (3.9 mg/100 mL methanol) in test tubes wrapped in aluminum foil. Absorbance (A) was measured at 517 nm after 8 min incubation in the dark. The scavenging ability (%) of the samples was calculated as (Acontrol−Asample)/Acontrol×100).
as §1, with “achillolide A or quercetin” for “TTF (or control drugs)”
The DPPH scavenging ability of TTF, memantine and quercetin were compared for eight minutes. Results are shown in FIG. 7 and are the mean±SEM of two experiments performed in duplicates (n=4).
The DPPH scavenging ability of achillolide A and quercetin were tested for eight minutes. Values represent the mean±SEM (n=4 for each concentration). **p<0.01; ***p<0.001, compared to a mixture without achillolide A or quercetin.

MEK1 = assay: Aβ25-35-induced MEK1 phosphorylation in N2a cells (ELISA); format: cell-based; details: concomitant treatment 30-40 min
Protocol: 7. Measure the amount of total and phosphorylated MEK1 in cell lysates of N2a cells, by ELISA using the PathScan total MEK1 sandwich ELISA kit (Cell Signaling TECHNOLOGY) or the PathScan phosoho-MEK1 (Ser217/221) sandwich ELISA kit (Cell Signaling TECHNOLOGY), respectively. 8. Determine the optical density at 450 nm using a microplate reader.
N2a cells were treated concomitantly with Aβ25-35 and TTF for 30 min. Cells were extracted and the levels of phosphorylated or total MEK1 were determined by specific ELISA kits. The results are the mean±SEM of two different experiments for phosphoMEK1 (n=4) (see FIG. 12A) and of one experiment for total MEK1 (n=2) (see FIG. 12B).
N2a cells were treated concomitantly with Aβ25-35 and AcA for 40 min. Cells were extracted and the levels of phosphorylated or total MEK1 were determined by specific ELISA kits. The results are the mean±SEM of one experiment (n=2).
N2a cells were treated concomitantly with A25-35 and memantine for 30 min. Cells were extracted and the levels of phosphorylated or total MEK1 were determined by specific ELISA kits. The results are the mean±SEM of one experiment (n=2).

[2] = 1 μM (lowest concentration tested), compound added 2 h before H2O2
[3] = 8 μM compound added 2 h before H2O2

Row | SMILES | protection against H2O2-induced cell death (primary astrocytes; [2]) [%] | protection against H2O2-induced cell death (primary astrocytes; [3]) [%] | inhibition of DPPH absorbance at 517 nm (maximal scavenging ability) [1] [%] | effect on Aβ25-35-induced phosphorylation of MEK1 (MEK1) | protection of astrocytes from H2O2-induced cell death (primary astrocytes; H2O2 200 μM added 2 h after compound) | IC50 [1] [µM] | protection against H2O2-induced cell death (primary astrocytes; 10 μM compound added 2 h before H2O2) [%]
1 | CC12CC3CC(C)(C1)CC(N)(C3)C2 [memantine, reference compound] | 48 | 58 | 7 | down-regulates |  |  | 
2 | C=C1CCC2=C(CO)C(=O)O[C@H]2/C=C(\C)[C@H](OC(C)=O)CC1=O [achillolide A] |  |  | 60 | does not affect | protects | 45 | 
3 | O=c1c(O)c(-c2ccc(O)c(O)c2)oc2cc(O)cc(O)c12 [quercetin, 3,3′,4′,5,7-Pentahydroxyflavone, reference compound] |  |  | 90 |  |  |  | 36
4 | COc1cc(-c2oc3cc(OC)c(OC)c(O)c3c(=O)c2O)ccc1O [TTF, 3,5,4′-trihydroxy-6,7,3′-trimethoxyflavone] | 24 | 92 | 60 | significantly inhibited |  | 45 | 
